Here are results for one molecule from patent US20220264883A1, “IMIDAZOTHIAZOLE COMPOUNDS AND METHODS FOR TREATING PLANT NEMATODE INFECTIONS” (The Governing Council of the University of Toronto, priority 2019, published 2022).

Where “and” joins values, the source holds several entries; their conditions need not be identical. Equal values may be shown once.

Data set [1] relates to C. elegans. Description: C. elegans viability at a single concentration (Table 3). Format: in vivo. The conditions noted are these: Caenorhabditis elegans; 50 μM (compound If). The method, then:
(§1) Forty microliters of an HB101 bacterial suspension in liquid NGM (see above) was added to each well of a 96-well flat-bottom culture plate, after which approximately 25 synchronized L1 worms, in 10 μl of M9 buffer (see ref. 59 for the recipe), were added to each well. The synchronized L1 worms were obtained from an embryo preparation performed the previous day (see ref. 59 for the protocol). For the L1 assays, 0.5 μl of chemical solution (or DMSO alone) was immediately added to the wells using a multichannel pipette, the final DMSO concentration is 1% (v/v). The worms were incubated for 3 days at 20° C. and the number of viable animals was counted. […] Although the counts were performed after 3 days of incubation in the chemical, it was noted that the L1s were dead within 24 hours of the addition of the chemicals. For the L2/L3 assays, the worms were incubated in the absence of chemical for 1 day at 20° C. until they reached the L2/L3 stage, at which point chemical was added as described above. The worms were then allowed to incubate for 2 days at 20° C. and the number of viable animals was counted as described for the L1 assay. For the L4 assays, the worms were incubated for 2 days at 20° C. before the addition of chemicals. The L4-stage worms were then incubated in chemical for an additional day before quantifying the number of viable animals. The adult assays were performed the same way as the L4 assays, however HT115 E. coli carrying the empty dsRNA expressing vector L4440 was used in place of HB101 and the worms were cultured at 25° C. as opposed to 20° C. for the entirety of the experiment. The HT115 suspension was made by concentrating a bacterial culture, with an OD600 of ˜ 0.8, five-fold with liquid NGM containing 1 mM IPTG and 100 μg/ml carbenicillin. The HT115 cells were induced with 1 mM IPTG for one hour before concentrating with NGM.
(§2) The ability of exemplary compounds of the application to kill C. elegans at 100 μM (except for compound If which was tested at 50 μM) and to affect the mobility of M. chitwoodi at 45 μM was tested as described above for M. incognita infective juveniles. Percent mobility was measured after 2 days of chronic exposure to test compounds (Table 3).

Data set [2] has as its system M. chitwoodi. Description: Root-knot nematode M. chitwoodi mobility (Table 3). Format: in vivo, Meloidogyne chitwoodi. Particulars: 45 μM, 2 days of chronic exposure. The method, then: (§3) M. incognita (Kofoid & White) Chitwood Race 1 (originally isolated in Maryland) was used for all experiments, and was maintained on pepper (Capsicum annuum L.) cv. PA-136 in a greenhouse as previously described^64. Infective J2 juveniles were collected as described in ref.65. The microwell dose-response experiments were carried out similarly to previously described protocols^64, 66. In brief, 100 J2s, in 10 μL of deionized water, were added to the wells of 96-well polystyrene plates, after which 190 μL of deionized water containing dissolved chemical, or DMSO alone, was added to each well. The chemicals were tested at 45 μM, and the final concentration of DMSO in each well was 0.5% (v/v). The wells were covered with a plastic adhesive strip, and the lids of the plates were sealed with parafilm. The plates were incubated at 25° C. The mobile fraction of worms was quantified by counting the number of mobile and immobile worms after 2 days of incubation, and then dividing the number of mobile worms by the total number of worms in the well. Three technical replicates were performed for each treatment, and an average value for the mobile fraction of worms was calculated across the three replicates. The percent effectiveness at inhibiting nematode movement was calculated by dividing the average value for the chemical treatment by the average value for the DMSO control, then subtracting this value from 1, and then multiplying by 100.
M. chitwoodi race 1 (the strain commonly found in the pacific northwest of the United States) was used for all experiments, and was maintained on tomato plants (Solanum lycopersicum ‘Rutgers’) as previously described^73. The M. chitwoodi in vitro assays were performed identically to the M. incognita in vitro assays (see above).
as §2

The test system of data set [3] is C. elegans. As to the kind of experiment: C. elegans minimum lethal concentration dose-response. Format: in vivo, Caenorhabditis elegans. Particulars: Caenorhabditis elegans, C. elegans viability. As for the experimental part:
as §1
Compounds Ia to Im, dose-response assays were performed with C. elegans. 8 of the compounds killed C. elegans with minimum lethal concentrations less than or equal to 100 μM (Table 6). Compounds Ia, Ic, and Ij were the most potently lethal nematicides in this assay, having minimum lethal concentrations of 6.25 μM and below. The positive control nematicide tioxazafen killed nematodes at 3.13 μM and above.

Data set [4] relates to M. incognita J2 larvae. As to the kind of experiment: Meloidogyne incognita in vitro assays (J2 movement). The data set is classed as in vivo. The conditions noted are these: 45 μM, 2 days, relative to DMSO control. As for the experimental part: as §3
Data set [5] has as its system M. chitwoodi. As to the kind of experiment: Meloidogyne chitwoodi infectivity assays (tomato roots in soil). The data set is classed as in vivo. The conditions noted are these: 45 μM in soil, 8 weeks, egg counts relative to DMSO control. The method, then: An M. incognita population originally collected from grape (Vitis vinifera) in Parlier, Calif., was used for all experiments, and they were maintained on tomato plants (Solanum lycopersicum ‘Rutgers’) as previously described^73. Infective J2 juveniles were collected as described in^73. For the infectivity assays, 90 grams of soil (1:1 sand:loam mix) was added to each cell of several 6-cell plastic garden packs. The soil was drenched with 18 mL of deionized water containing dissolved chemical or DMSO alone. 2,500 infective J2 juveniles were then added to the soil in 2 mL of deionized water, for a total water volume of 20 mL. The final concentration of the chemicals in water was 45 μM. The DMSO concentration varied from 0.1% to 0.8% (v/v) depending on the stock concentration of the chemical. The highest DMSO concentration was used as the DMSO control. The J2s were incubated in the soil and chemical for 24 hours, after which two- to three-week old tomato seedlings were transplanted into the soil (one plant per cell). […] The number of eggs from each plant root was counted on a dissection microscope using a haemocytometer, and the number of eggs per milligram of root was calculated by dividing the total egg number by the mass of the dried root material. […] An average percent effectiveness value was then calculated across the two different batches carried out on different days. […]

Data set [6] relates to tomato plants. Description: Root mass of tomato plants in the infectivity assays. Format: in vivo, Solanum lycopersicum. The conditions noted are these: 45 μM. The method, then:
An M. incognita population originally collected from grape (Vitis vinifera) in Parlier, Calif., was used for all experiments, and they were maintained on tomato plants (Solanum lycopersicum ‘Rutgers’) as previously described^73. Infective J2 juveniles were collected as described in^73. For the infectivity assays, 90 grams of soil (1:1 sand:loam mix) was added to each cell of several 6-cell plastic garden packs. The soil was drenched with 18 mL of deionized water containing dissolved chemical or DMSO alone. 2,500 infective J2 juveniles were then added to the soil in 2 mL of deionized water, for a total water volume of 20 mL. The final concentration of the chemicals in water was 45 μM. The DMSO concentration varied from 0.1% to 0.8% (v/v) depending on the stock concentration of the chemical. The highest DMSO concentration was used as the DMSO control. The J2s were incubated in the soil and chemical for 24 hours, after which two- to three-week old tomato seedlings were transplanted into the soil (one plant per cell). Two replicates were performed for each chemical treatment, and four replicates were done for the DMSO controls. The whole experiment was replicated twice, in two different batches on two different days, for a total of four replicates for each chemical treatment, and eight replicates for the DMSO controls. Inoculated plants were grown for 8 weeks in a greenhouse, as described^73, under long-day conditions (16-h photoperiod) with 26/18° C. day/night temperatures. After 8 weeks, the plants were destructively harvested. The tops were removed and discarded, and roots were gently washed with water to remove adhering soil. Eggs were extracted by placing rinsed roots in 0.6% sodium hypochlorite and agitating at 300 rpm for 3 min. Roots were then rinsed over nested 250- and 25.4-μm sieves, with eggs collected from the latter and suspended in water. Roots were dried in a 65° C. oven for at least 24 hours, after which dry roots were weighed. The number of eggs from each plant root was counted on a dissection microscope using a haemocytometer, and the number of eggs per milligram of root was calculated by dividing the total egg number by the mass of the dried root material. An average was taken across the replicates performed on the same day, and then normalized to the DMSO control average. To calculate percent effectiveness at inhibiting reproduction, the normalized values were subtracted from 1, and then multiplied by 100. An average percent effectiveness value was then calculated across the two different batches carried out on different days.

With `Cc1csc2nc(-c3ccc(Cl)cc3)cn12` [Compound If], the viability at 50 µM in data set [1] turned out to be 19.8%. Also, the RKN mobility in data set [2] is 0.6%. In addition, the minimal effective concentration in data set [3] is 25 µM and 6.2 µg/mL. Also, the “% effectiveness at reducing M. incognita movement” value in data set [4] is recorded as 3.5%. For the same molecule, the “% effectiveness at inhibiting reproduction of M. chitwoodi” value in data set [5] is 46.2%. In data set [6], the “Normalized root mass (relative to DMSO control)” value is 1.3.
